The values below come from patent publication US20240018122A1, “PYRIDAZINYL AMINO DERIVATIVES AS ALK5 INHIBITORS” (CHIESI FARMACEUTICI S.P.A., priority 2020, published 2024).

The structures appear in SMILES notation.

The target of the first experiment is human ALK5 (Homo sapiens (Human), UniProt P36897). Briefly: ADP-GLO Kinases assay, inhibitory activity on ALK5. The format is biochemical.
human ALK5, sequence (P36897 80-503 limits assumed): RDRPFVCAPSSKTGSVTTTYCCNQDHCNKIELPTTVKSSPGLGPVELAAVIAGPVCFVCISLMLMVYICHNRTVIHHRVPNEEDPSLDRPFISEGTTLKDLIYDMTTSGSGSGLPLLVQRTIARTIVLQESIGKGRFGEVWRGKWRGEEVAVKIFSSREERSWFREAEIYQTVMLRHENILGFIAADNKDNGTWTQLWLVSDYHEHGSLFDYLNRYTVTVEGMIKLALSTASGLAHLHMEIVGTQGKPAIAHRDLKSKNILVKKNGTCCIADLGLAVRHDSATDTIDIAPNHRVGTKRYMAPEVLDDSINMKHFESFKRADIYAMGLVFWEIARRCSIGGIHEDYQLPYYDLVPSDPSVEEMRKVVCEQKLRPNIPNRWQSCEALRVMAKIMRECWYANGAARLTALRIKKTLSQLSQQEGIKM
Details: not given
In general terms: In ADP-Glo the light output rises with the ADP produced.
In the case of `CN1CC2(CCN(C(=O)Oc3ccc4c(Nc5cnnc(-c6cc(Cl)ccc6F)c5)ccnc4c3)C2)C1` [Example 119, 4-{[6-(5-Chloro-2-Fluorophenyl)Pyridazin-4-Yl]Amino}Quinolin-7-Yl 2-Methyl-2,6-Diazaspiro[3.4]Octane-6-Carboxylate], the IC50 fell in the range of 1 to 5 nM.
In turn, `Cc1nnc(-c2cc(Cl)ccc2F)cc1Nc1ccnc2cc(OC(=O)N3CC4CC3CN4C)ccc12` (stereo not drawn) [Example 128, 4-{[6-(5-Chloro-2-Fluorophenyl)-3-Methylpyridazin-4-Yl]Amino}Quinolin-7-Yl 5-Methyl-2,5-Diazabicyclo[2.2.1]Heptane-2-Carboxylate] had a half-maximal inhibitory concentration (IC50) below 1 nM.

Still in this experiment, the particulars now being: purified recombinant human ALK5 2.6 nM, TGFβ1 peptide substrate, 25° C, 150 min incubation, ADP-Glo detection; read-out: ALK5 IC50.
As to `CNCCN1CCN(CC(=O)Nc2cc(Nc3cc(-c4cc(Cl)ccc4F)nnc3C)ccn2)CC1` [Example 106, N-(4-{[6-(5-Chloro-2-Fluorophenyl)-3-Methylpyridazin-4-Yl]Amino}Pyridin-2-Yl)-2-{4-[2-(Methylamino)Ethyl]Piperazin-1-Yl}Acetamide], the IC50 is below 1 nM.
`COC(=O)N(C)CCN1CCN(CC(=O)Nc2cc(Nc3cc(-c4cc(Cl)ccc4F)nnc3C)ccn2)CC1` [Example 107, Methyl N-[2-(4-{[(4-{[6-(5-Chloro-2-Fluorophenyl)-3-Methylpyridazin-4-Yl]Amino}Pyridin-2-Yl)Carbamoyl]Methyl}Piperazin-1-Yl)Ethyl]-N-Methylcarbamate]: the IC50 is below 1 nM.
As for `Cc1nnc(-c2cc(Cl)ccc2F)cc1Nc1ccnc(NC(=O)CN2CCN(CCN)CC2)c1` [Example 108, 2-[4-(2-Aminoethyl)Piperazin-1-Yl]-N-(4-{[6-(5-Chloro-2-Fluorophenyl)-3-Methylpyridazin-4-Yl]Amino}Pyridin-2-Yl)Acetamide], the half-inhibitory concentration (IC50) was below 1 nM.
`COC(=O)NCCN1CCN(CC(=O)Nc2cc(Nc3cc(-c4cc(Cl)ccc4F)nnc3C)ccn2)CC1` [Example 109, methyl N-[2-(4-{[(4-{[6-(5-chloro-2-fluorophenyl)-3-methylpyridazin-4-yl]amino}pyridin-2-yl)carbamoyl]methyl}piperazin-1-yl)ethyl]carbamate]: the IC50 was below 1 nM.
`Cc1nnc(-c2cc(Cl)ccc2F)cc1Nc1ccnc(NC(=O)CCN2C[C@@H]3C[C@H]2CN3C)c1` [Example 111, N-(4-{[6-(5-Chloro-2-Fluorophenyl)-3-Methylpyridazin-4-Yl]Amino}Pyridin-2-Yl)-3-[(1S,4S)-5-Methyl-2,5-Diazabicyclo[2.2.1]Heptan-2-Yl]Propanamide]: the IC50 was below 1 nM.
Same read-out and setting: for `O=C(Oc1ccc2c(Nc3cnnc(-c4cc(Cl)ccc4F)c3)ccnc2c1)N1CCC2(CCNCC2)C1` [Example 112, 4-{[6-(5-Chloro-2-Fluorophenyl)Pyridazin-4-Yl]Amino}Quinolin-7-Yl 2,8-Diazaspiro[4.5]Decane-2-Carboxylate] the value was below 1 nM.
Still for that read-out and setting: for `COC(=O)C1CN(CCC(=O)Nc2cc(Nc3cc(-c4cc(Cl)ccc4F)nnc3C)ccn2)CCN1C(C)C` (stereo not drawn) [Example 113, Methyl 4-{2-[(4-{[6-(5-Chloro-2-Fluorophenyl)-3-Methylpyridazin-4-Yl]Amino}Pyridin-2-Yl)Carbamoyl]Ethyl}-1-(Propan-2-Yl)Piperazine-2-Carboxylate] the value was below 1 nM; for `CN1CC2(CCN(C(=O)Oc3ccc4c(Nc5cnnc(-c6cc(Cl)ccc6F)c5)ccnc4c3)CC2)C1` [Example 114, 4-{[6-(5-Chloro-2-Fluorophenyl)Pyridazin-4-Yl]Amino}Quinolin-7-Yl 2-Methyl-2,7-Diazaspiro[3.5]Nonane-7-Carboxylate], below 1 nM.
Consider `CN1CCC2(CC1)CN(C(=O)Oc1ccc3c(Nc4cnnc(-c5cc(Cl)ccc5F)c4)ccnc3c1)C2` [Example 115, 4-{[6-(5-Chloro-2-Fluorophenyl)Pyridazin-4-Yl]Amino}Quinolin-7-Yl 7-Methyl-2,7-Diazaspiro[3.5]Nonane-2-Carboxylate], for which the half-maximal inhibitory concentration (IC50) was below 1 nM.
As to `Cc1nnc(-c2cc(Cl)ccc2F)cc1Nc1ccnc(NC(=O)CCN2CCNC(CC(=O)O)C2)c1` (stereo not drawn) [Example 116, 2-(4-{2-[(4-{[6-(5-chloro-2-fluorophenyl)-3-methylpyridazin-4-yl]amino}pyridin-2-yl)carbamoyl]ethyl}piperazin-2-yl)acetic acid], the IC50 is below 1 nM.
Consider `Cc1nnc(-c2cc(Cl)ccc2F)cc1Nc1ccnc(NC(=O)CN2CCOCC2)c1` [Example 117, N-(4-{[6-(5-Chloro-2-Fluorophenyl)-3-Methylpyridazin-4-Yl]Amino}Pyridin-2-Yl)-2-(Morpholin-4-Yl)Acetamide], for which the concentration for half-maximal inhibition (IC50) was below 1 nM.
`CN1CCC2(CC1)CCN(C(=O)Oc1ccc3c(Nc4cnnc(-c5cc(Cl)ccc5F)c4)ccnc3c1)C2` [Example 118, 4-{[6-(5-Chloro-2-Fluorophenyl)Pyridazin-4-Yl]Amino}Quinolin-7-Yl 8-Methyl-2,8-Diazaspiro[4.5]Decane-2-Carboxylate]: the IC50 was below 1 nM.
As for `Cc1nnc(-c2cc(Cl)ccc2F)cc1Nc1ccnc(NC(=O)CCN2CCSCC2)c1` [Example 120, N-(4-{[6-(5-Chloro-2-Fluorophenyl)-3-Methylpyridazin-4-Yl]Amino}Pyridin-2-Yl)-3-(Thiomorpholin-4-Yl)Propanamide], the IC50 is below 1 nM.
For the compound `Cc1nnc(-c2cc(Cl)ccc2F)cc1Nc1ccnc(NC(=O)CCN2CC3CC2CN3C)c1` (stereo not drawn) [Example 121, N-(4-{[6-(5-Chloro-2-Fluorophenyl)-3-Methylpyridazin-4-Yl]Amino}Pyridin-2-Yl)-3-{5-Methyl-2,5-Diazabicyclo[2.2.1]Heptan-2-Yl}Propanamide], the 50% inhibitory concentration (IC50) is below 1 nM.
Still for that read-out and setting: to `CCOC(=O)C1CN(CCC(=O)Nc2cc(Nc3cc(-c4cc(Cl)ccc4F)nnc3C)ccn2)CCN1C` (stereo not drawn) [Example 122, Ethyl 4-{2-[(4-{[6-(5-Chloro-2-Fluorophenyl)-3-Methylpyridazin-4-Yl]Amino}Pyridin-2-Yl)Carbamoyl]Ethyl}-1-Methylpiperazine-2-Carboxylate] belongs below 1 nM; to `Cc1nnc(-c2cc(Cl)ccc2F)cc1Nc1ccnc(NC(=O)C[N+]2([O-])CCOCC2)c1` [Example 123, 4-{[(4-{[6-(5-Chloro-2-Fluorophenyl)-3-Methylpyridazin-4-Yl]Amino}Pyridin-2-Yl)Carbamoyl]Methyl}Morpholin-4-Ium-4-Olate], below 1 nM; to `Cc1nnc(-c2cc(Cl)ccc2F)cc1Nc1ccnc(NC(=O)CCN2CCN(CC(F)(F)F)CC2)c1` [Example 124, N-(4-{[6-(5-Chloro-2-Fluorophenyl)-3-Methylpyridazin-4-Yl]Amino}Pyridin-2-Yl)-3-[4-(2,2,2-Trifluoroethyl)Piperazin-1-Yl]Propanamide], below 1 nM.
On to `Cc1nnc(-c2cc(Cl)ccc2F)cc1Nc1ccnc(NC(=O)CCN2CCN(C)C(C(=O)OC(C)C)C2)c1` (stereo not drawn) [Example 126, Propan-2-Yl 4-{2-[(4-{[6-(5-Chloro-2-Fluorophenyl)-3-Methylpyridazin-4-Yl]Amino}Pyridin-2-Yl)Carbamoyl]Ethyl}-1-Methylpiperazine-2-Carboxylate], for which the concentration for half-maximal inhibition (IC50) was below 1 nM.
For `Cc1nnc(-c2cc(Cl)ccc2F)cc1Nc1ccnc(NC(=O)CCN2CCN(C)C(C(=O)OC3CC3)C2)c1` (stereo not drawn) [Example 127, Cyclopropyl 4-{2-[(4-{[6-(5-Chloro-2-Fluorophenyl)-3-Methylpyridazin-4-Yl]Amino}Pyridin-2-Yl)Carbamoyl]Ethyl}-1-Methylpiperazine-2-Carboxylate], the IC50 was below 1 nM.

In general, IC50 refers to the concentration that gives 50% inhibition.
